Data reported in patent US10517889B2, “Modulators of SMAD7 expression” (Ionis Pharmaceuticals, Inc., priority 2017, dated 2019).
Strand notation (5' to 3'): a small letter for the sugar, then the base; units joined by * are phosphorothioate-linked, units joined directly phosphodiester-linked; [ ] holds rarer units or linkages, { } end groups; capitals alone tell only the bases. k = constrained ethyl (cEt); [5mC] = 5-methylcytosine; d = 2'-deoxy (DNA)

Tested on: human SMAD7 mRNA
Assay: Antisense inhibition of human SMAD7 mRNA expression in Hep3B cells by 3-10-3 cEt gapmers, 10,000 nM, electroporation (Example 2)
Assay type: cell-based
Settings: Hep3B cells, electroporation with 10,000 nM antisense oligonucleotide, approximately 24 hours, primer probe set RTS5062, relative to untreated control cells
In short: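 Hep3B cells (20,000/well) were electroporated with 10,000 nM 3-10-3 cEt gapmer (16-mer, phosphorothioate, 5-methylcytosines) and harvested after about 24 h. SMAD7 mRNA quantified by RT-qPCR with primer probe set RTS5062, normalized to total RNA by RiboGreen; percent inhibition relative to untreated cells.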

| Substance | % inhibition of SMAD7 mRNA expression [%] | % Inhibition [%] |
| --- | --- | --- |
| 799044 (k[5mC]*kA*kG*dA*dG*d[5mC]*d[5mC]*dG*dT*dG*d[5mC]*dT*d[5mC]*k[5mC]*kT*kG; antisense) [compound 799044] | 0 |  |
| 799045 (kG*kG*kA*d[5mC]*dA*dG*dA*dG*d[5mC]*d[5mC]*dG*dT*dG*k[5mC]*kT*k[5mC]; antisense) [compound 799045] | 37 |  |
| 799046 (antisense kG*kG*k[5mC]*dT*dT*dT*d[5mC]*d[5mC]*d[5mC]*dA*dG*dG*d[5mC]*kT*kG*kG) [compound 799046] | 0 |  |
| 799047 (antisense kT*kT*kG*dA*dT*dG*dA*dG*dG*dG*dA*dG*dA*kG*kG*kA) [compound 799047] | 63 |  |
| 799048 (antisense kT*k[5mC]*k[5mC]*dT*dT*dG*dA*dT*dG*dA*dG*dG*dG*kA*kG*kA) [compound 799048] | 60 |  |
| 799049 (antisense kG*k[5mC]*k[5mC]*d[5mC]*dG*dT*dG*dT*d[5mC]*d[5mC]*dT*dT*dG*kA*kT*kG) [compound 799049] | 44 |  |
| 799050 (antisense kA*k[5mC]*kA*dG*dG*d[5mC]*d[5mC]*d[5mC]*dG*dT*dG*dT*d[5mC]*k[5mC]*kT*kT) [compound 799050] | 36 |  |
| 799051 (antisense kT*kG*kG*dA*d[5mC]*dA*dG*dG*d[5mC]*d[5mC]*d[5mC]*dG*dT*kG*kT*k[5mC]) [compound 799051] | 32 |  |
| 799052 (antisense k[5mC]*kT*kG*dT*dG*dG*dA*d[5mC]*dA*dG*dG*d[5mC]*d[5mC]*k[5mC]*kG*kT) [compound 799052] | 40 |  |
| 799053 (antisense kA*kG*k[5mC]*d[5mC]*dT*dG*dT*dG*dG*dA*d[5mC]*dA*dG*kG*k[5mC]*k[5mC]) [compound 799053] |  | 0 |
| 799054 (antisense k[5mC]*kA*kG*dA*dA*dG*d[5mC]*d[5mC]*dT*dG*dT*dG*dG*kA*k[5mC]*kA) [compound 799054] |  | 15 |
| 799055 (antisense kG*k[5mC]*kT*d[5mC]*dA*dG*dA*dA*dG*d[5mC]*d[5mC]*dT*dG*kT*kG*kG) [compound 799055] |  | 19 |
| 799056 (antisense k[5mC]*kG*k[5mC]*dT*dG*d[5mC]*dT*d[5mC]*dA*dG*dA*dA*dG*k[5mC]*k[5mC]*kT) [compound 799056] |  | 28 |
| 799057 (antisense kG*kG*k[5mC]*dT*d[5mC]*dG*d[5mC]*dT*dG*d[5mC]*dT*d[5mC]*dA*kG*kA*kA) [compound 799057] |  | 0 |
| 799058 (antisense kA*kG*k[5mC]*dA*dG*dG*d[5mC]*dT*d[5mC]*dG*d[5mC]*dT*dG*k[5mC]*kT*k[5mC]) [compound 799058] |  | 0 |
| 799059 (antisense kA*k[5mC]*kT*dA*dG*d[5mC]*dA*dG*dG*d[5mC]*dT*d[5mC]*dG*k[5mC]*kT*kG) [compound 799059] |  | 18 |
| 799060 (antisense kG*k[5mC]*k[5mC]*dA*d[5mC]*dT*dA*dG*d[5mC]*dA*dG*dG*d[5mC]*kT*k[5mC]*kG) [compound 799060] |  | 37 |
| 799061 (antisense kT*kT*k[5mC]*dG*dG*d[5mC]*d[5mC]*dA*d[5mC]*dT*dA*dG*d[5mC]*kA*kG*kG) [compound 799061] |  | 45 |
| 799062 (antisense k[5mC]*kT*kG*dG*dT*dT*d[5mC]*dG*dG*d[5mC]*d[5mC]*dA*d[5mC]*kT*kA*kG) [compound 799062] |  | 45 |
| 799063 (antisense kT*kG*kG*dT*dT*d[5mC]*dT*dG*dG*dT*dT*d[5mC]*dG*kG*k[5mC]*k[5mC]) [compound 799063] | 9 |  |
| 799064 (antisense kT*kA*kA*dT*dT*dG*dG*dT*dT*d[5mC]*dT*dG*dG*kT*kT*k[5mC]) [compound 799064] | 47 |  |
| 799065 (antisense kA*kA*kA*dT*dA*dA*dT*dT*dG*dG*dT*dT*d[5mC]*kT*kG*kG) [compound 799065] | 35 |  |
| 799066 (antisense kT*kG*kA*dA*dA*dA*dT*dA*dA*dT*dT*dG*dG*kT*kT*k[5mC]) [compound 799066] | 0 |  |
| 799068 (antisense kG*kA*k[5mC]*dA*dA*dG*dG*dA*dT*dG*dA*dA*dA*kA*kT*kA) [compound 799068] | 49 |  |
| 799069 (antisense kA*kT*kA*dA*dG*dA*d[5mC]*dA*dA*dG*dG*dA*dT*kG*kA*kA) [compound 799069] | 18 |  |
| 799071 (antisense kG*kG*kA*dA*dG*dG*dG*dA*dA*dT*dA*dA*dG*kA*k[5mC]*kA) [compound 799071] | 44 |  |
| 799072 (antisense kG*k[5mC]*kA*dG*dG*dA*dA*dG*dG*dG*dA*dA*dT*kA*kA*kG) [compound 799072] | 55 |  |

| Substance | % inhibition of SMAD7 mRNA expression [%] | % Inhibition [%] |
| --- | --- | --- |
| 799073 (antisense k[5mC]*kG*k[5mC]*dT*dA*d[5mC]*dA*dA*dT*dG*dG*d[5mC]*dA*kG*kG*kG) [compound 799073] |  | 34 |
| 799074 (antisense k[5mC]*kA*kA*dA*dA*dA*dA*dG*dA*dA*dA*dG*dA*k[5mC]*kG*k[5mC]) [compound 799074] |  | 9 |
| 799075 (antisense kA*kG*kA*dT*dG*dG*d[5mC]*d[5mC]*dA*dA*dA*dA*dA*kA*kG*kA) [compound 799075] |  | 0 |
| 799076 (antisense kA*kG*k[5mC]*dA*dG*dA*dT*dG*dG*d[5mC]*d[5mC]*dA*dA*kA*kA*kA) [compound 799076] |  | 34 |
| 799077 (antisense k[5mC]*kA*kG*dG*dA*dG*d[5mC]*dA*dG*dA*dT*dG*dG*k[5mC]*k[5mC]*kA) [compound 799077] |  | 28 |
| 799078 (antisense kA*kT*k[5mC]*d[5mC]*dA*dG*dG*dA*dG*d[5mC]*dA*dG*dA*kT*kG*kG) [compound 799078] |  | 19 |
| 799079 (antisense kG*kA*kG*dA*dT*d[5mC]*d[5mC]*dA*dG*dG*dA*dG*d[5mC]*kA*kG*kA) [compound 799079] |  | 46 |
| 799080 (antisense kA*kG*kG*dG*dA*dG*dA*dT*d[5mC]*d[5mC]*dA*dG*dG*kA*kG*k[5mC]) [compound 799080] |  | 56 |
| 799081 (antisense kT*k[5mC]*kT*d[5mC]*dA*dG*dG*dG*dA*dG*dA*dT*d[5mC]*k[5mC]*kA*kG) [compound 799081] |  | 28 |
| 799082 (antisense kG*k[5mC]*k[5mC]*d[5mC]*dA*dT*d[5mC]*dT*d[5mC]*dA*dG*dG*dG*kA*kG*kA) [compound 799082] |  | 27 |
| 799083 (antisense kG*kG*kA*dA*dG*d[5mC]*d[5mC]*d[5mC]*dA*dT*d[5mC]*dT*d[5mC]*kA*kG*kG) [compound 799083] | 0 |  |
| 799084 (antisense k[5mC]*kT*kT*dG*dG*dG*dA*dA*dG*d[5mC]*d[5mC]*d[5mC]*dA*kT*k[5mC]*kT) [compound 799084] | 0 |  |
| 799085 (antisense kG*k[5mC]*k[5mC]*d[5mC]*dT*dT*dG*dG*dG*dA*dA*dG*d[5mC]*k[5mC]*k[5mC]*kA) [compound 799085] | 10 |  |
| 799086 (antisense kG*kG*k[5mC]*dA*dG*d[5mC]*d[5mC]*d[5mC]*dT*dT*dG*dG*dG*kA*kA*kG) [compound 799086] | 0 |  |
| 799087 (antisense k[5mC]*k[5mC]*k[5mC]*d[5mC]*dG*dG*d[5mC]*dA*dG*d[5mC]*d[5mC]*d[5mC]*dT*kT*kG*kG) [compound 799087] | 69 |  |
| 799088 (antisense kG*k[5mC]*kT*dG*d[5mC]*d[5mC]*d[5mC]*d[5mC]*dG*dG*d[5mC]*dA*dG*k[5mC]*k[5mC]*k[5mC]) [compound 799088] | 24 |  |
| 799090 (antisense kG*kT*kG*dA*dG*d[5mC]*dA*dA*dT*dA*d[5mC]*dT*dG*kT*kG*kA) [compound 799090] | 49 |  |
| 799091 (antisense kA*k[5mC]*kT*dG*dG*dG*dT*dG*dA*dG*d[5mC]*dA*dA*kT*kA*k[5mC]) [compound 799091] | 42 |  |
| 799092 (antisense kG*kG*k[5mC]*dA*d[5mC]*dT*dG*dG*dG*dT*dG*dA*dG*k[5mC]*kA*kA) [compound 799092] | 30 |  |
| 799093 (antisense kG*kT*k[5mC]*dA*d[5mC]*d[5mC]*dA*dG*dG*dG*d[5mC]*dA*dG*kG*k[5mC]*kA) [compound 799093] |  | 47 |
| 799094 (antisense kT*kG*kA*dT*dG*dT*d[5mC]*dA*d[5mC]*d[5mC]*dA*dG*dG*kG*k[5mC]*kA) [compound 799094] |  | 57 |
| 799095 (antisense kA*k[5mC]*k[5mC]*dT*dG*dA*dT*dG*dT*d[5mC]*dA*d[5mC]*d[5mC]*kA*kG*kG) [compound 799095] |  | 0 |
| 799096 (antisense kA*kA*k[5mC]*d[5mC]*dT*dG*dA*dT*dG*dT*d[5mC]*dA*d[5mC]*k[5mC]*kA*kG) [compound 799096] |  | 30 |
| 799097 (antisense kA*kA*kA*d[5mC]*d[5mC]*dT*dG*dA*dT*dG*dT*d[5mC]*dA*k[5mC]*k[5mC]*kA) [compound 799097] |  | 39 |
| 799098 (antisense kA*kA*kA*dA*d[5mC]*d[5mC]*dT*dG*dA*dT*dG*dT*d[5mC]*kA*k[5mC]*k[5mC]) [compound 799098] |  | 38 |
| 799099 (antisense kA*kA*kA*dA*dA*d[5mC]*d[5mC]*dT*dG*dA*dT*dG*dT*k[5mC]*kA*k[5mC]) [compound 799099] |  | 44 |
